Results taken from PMC6491728, “Application of in vitro Drug Metabolism Studies in Chemical Structure Optimization for the Treatment of Fibrodysplasia Ossificans Progressiva (FOP)” (Frontiers in Pharmacology, 2019).
In brackets after ≈: the same amount, converted by molar mass. Read-outs that look alike come from different tables or passages of the source.

Tests used:
[1] = Metabolite profiling in human liver microsomes and cytosol (LC/UV/MS, inhibitors, trapping)
[2] = Stirring double-sink PAMPA permeability; format: in vitro ADME; settings: passive diffusion
Method: Parallel Artificial Membrane Permeability Assay (PAMPA) was employed to determine the passive diffusion permeability of LDN-193189 and analogs. Stirring double-sink PAMPA method (pION Inc.) was employed to determine the permeability of compounds. The method was performed as described previously ([Sun et al., 2017]).

ALK5 = biological target: T1, ALK5 (Mus musculus, UniProt Q64729); experiment: TGFβ-stimulated SMAD2/3 phosphorylation in C2C12 cells (HTRF); format: cell-based
T1 construct: determined in C2C12 cell lines (ATCC; Manassas, VA, United States); host or cells: C2C12
T1 sequence (Q64729 30-503): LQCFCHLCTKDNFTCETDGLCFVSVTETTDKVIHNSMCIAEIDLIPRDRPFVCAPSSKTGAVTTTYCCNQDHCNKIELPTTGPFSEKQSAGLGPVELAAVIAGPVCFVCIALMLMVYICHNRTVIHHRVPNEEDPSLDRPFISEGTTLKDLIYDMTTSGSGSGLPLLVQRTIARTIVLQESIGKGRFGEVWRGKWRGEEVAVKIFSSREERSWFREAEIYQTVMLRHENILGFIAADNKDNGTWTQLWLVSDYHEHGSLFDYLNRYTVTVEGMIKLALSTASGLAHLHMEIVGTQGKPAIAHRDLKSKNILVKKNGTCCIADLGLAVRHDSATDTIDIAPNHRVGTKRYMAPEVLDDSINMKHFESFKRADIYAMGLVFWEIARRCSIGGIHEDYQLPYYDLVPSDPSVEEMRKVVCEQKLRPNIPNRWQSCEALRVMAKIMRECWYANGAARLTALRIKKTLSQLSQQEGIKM
Method: (§1) The in vitro activity toward to ALK2 and the selectivity over ALK3 and ALK5 were determined in C2C12 cell lines (ATCC; Manassas, VA, United States) through measuring the phosphorylation level of SMAD1/5/8 (for ALK2 and ALK3) or SMAD2/3 (for ALK5) under the stimulation of BMP6 (mediated by ALK2), BMP4 (mediated by ALK3) and TGFβ (mediated by ALK5), respectively, by using homogeneous time resolved fluorescence (HTRF; a manuscript in preparation).

[3] = Kinetic solubility (μSOL Evolution, pH 7.4 phosphate buffer); format: physicochemical; settings: pH 7.4, aqueous buffer, kinetic from dmso stock
Method: Kinetic solubility was measured using the μSOL Evolution system from pION Inc. (Billerica, MA, United States). Saturation shake-flask solubility method was adapted as previously described ([Avdeef and Berger, 2001]). Briefly, 10 mM DMSO stock was diluted to a final drug concentration of 150 μM in the aqueous solution (pH 7.4, 100 mM phosphate buffer) in duplicates. The solution was kept at room temperature for 6 h for equilibration. After equilibration, precipitates were removed using Tecan Te-Vac vacuum-filter and the compound concentration was measured by UV absorbance (λ: 250–498 nm). Data was compared to a fully solubilized reference solution of the test article at 17 μM in spectroscopically pure n-propanol. The kinetic solubility (μg/mL) was calculated using the μSOL Evolution software.

[4] = In vitro metabolic stability screening assay with rat liver microsomes; format: in vitro ADME; settings: rat liver microsomes 0.5 mg/mL, 1 μM compound, single time point 15 min, 37°C; read-out: Microsomal Stability t1/2
Method: In vitro metabolic stability screening assay was conducted with rat liver microsomes in a 96-well plate, where 1 μM of compound was incubated with 0.5 mg/mL of rat liver microsomal protein. A single time point was collected at 15 min after an incubation at 37°C. […] When the half-life was greater than 30 min, results were presented as >30 min.

ALK2 = biological target: T2, ALK2 (Mus musculus, UniProt P37172); experiment: BMP6-stimulated SMAD1/5/8 phosphorylation in C2C12 cells (HTRF); format: cell-based; settings: for IC50: C2C12 cells, SMAD1/5/8 phosphorylation, HTRF, read-out: BMP6 (mediated by ALK2) IC50
T2 construct: determined in C2C12 cell lines (ATCC; Manassas, VA, United States); host or cells: C2C12
T2 sequence (P37172 21-509): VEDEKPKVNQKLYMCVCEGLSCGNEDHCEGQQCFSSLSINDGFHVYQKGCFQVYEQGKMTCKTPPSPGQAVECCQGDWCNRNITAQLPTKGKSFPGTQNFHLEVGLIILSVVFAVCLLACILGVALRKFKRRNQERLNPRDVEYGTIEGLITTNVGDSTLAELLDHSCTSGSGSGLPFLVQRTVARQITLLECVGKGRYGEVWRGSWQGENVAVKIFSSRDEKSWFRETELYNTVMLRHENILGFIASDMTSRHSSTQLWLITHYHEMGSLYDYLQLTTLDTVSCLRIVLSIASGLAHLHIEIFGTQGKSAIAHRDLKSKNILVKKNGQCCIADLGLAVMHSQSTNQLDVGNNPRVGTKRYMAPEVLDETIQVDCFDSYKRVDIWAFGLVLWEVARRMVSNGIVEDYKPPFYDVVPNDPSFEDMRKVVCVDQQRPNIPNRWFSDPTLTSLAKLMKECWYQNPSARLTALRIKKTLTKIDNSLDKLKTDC
Method: as §1

ALK3 = biological target: T3, ALK3 (Mus musculus, UniProt P36895); experiment: BMP4-stimulated SMAD1/5/8 phosphorylation in C2C12 cells (HTRF); format: cell-based; settings: read-out: BMP4 (mediated by ALK3) IC50
T3 construct: determined in C2C12 cell lines (ATCC; Manassas, VA, United States); host or cells: C2C12
Method: as §1

[5] = Metabolite formation in human and mouse liver subcellular fractions (LC/UV/MS, trapping); format: in vitro ADME; settings: for cyanide (KCN) adduct: KCN trapping; for metabolism in cytosol incubation (AO-mediated): liver cytosol; for GSH adduct: microsomal incubation with NADPH and GSH, mouse and human; for Species in which the metabolite of Compound 2 was observed / Species in which the metabolite of Compound 3 was observed: H human, M mouse
[6] = Metabolite profiling of LDN-193189 in liver microsomal/cytosolic fractions of six species (LC/UV/MS, GSH and KCN trapping); settings: for Species in which the metabolite of LDN-193189 was observed: LDN-193189 10 μM, 60 min, M mouse, R rat, Rb rabbit, D dog, Mo monkey, H human; for metabolite found in rat microsomal incubation with LDN-193189: rat liver microsomes
Method: Total incubation volume per sample was 1 mL. The metabolic reactions were initiated by the addition of cofactors, NADPH-regenerating system and UDPGA, after a pre-incubation at 37°C for 5 min. The incubation mixtures were placed in a shaking water bath at 37°C for 60 min. At the end of the reaction, three volumes of ACN were added, followed by vortexing and centrifugation to remove proteins. The supernatants were transferred to clean tubes and dried completely under a stream of nitrogen at ambient temperature. The dried residues were reconstituted with 500 μL of 25% MeOH in water and transferred into HPLC vials for LC/UV/MS analysis.
Chromatography was accomplished on a Phenomenex Luna, C18 (2) column, 3.0 × 250 mm, 5 μm (Torrance, CA, United States). The column was kept at ambient temperature during sample analysis. The mobile phases were HPLC grade water (solvent A) and ACN (solvent B), both of which contained 0.1% trifluoroacetic acid (TFA). […] The first 4 min of the HPLC flow was diverted to waste prior to evaluation of metabolites.
To facilitate distinction of carbon or heteroatom oxidations, hydrogen/deuterium (H/D) exchange experiments were performed by replacing the aqueous mobile phase (H2O) with D2O while keeping the rest of assay conditions unchanged.
UV absorption spectra from 200 to 400 nm were recorded using a diode array detector. The Thermo Finnigan LTQ XL mass spectrometer was equipped with an electrospray ionization (ESI) interface and operated in positive ionization mode for metabolite profiling and identification. Mass spectra were acquired in full scan (MS) (m/z 200–1000) and data dependent scan (MS^2, MS^3, and MS^4) modes. The ESI spray voltage was +5kV with capillary temperature of 300°C. Sheath gas and auxiliary gas were 80 and 20 arbitrary units, respectively. Activation Q was 0.25 and Activation time 30 ms. The collision energy used to obtain fragments was set at 40 eV.

mouse FOP disease model = test system: mouse FOP disease model; parameters: method as in Yu et al., 2008a; settings: ref Yu et al., 2008a; cited from earlier work
[7] = parameters: method as in Cuny et al., 2008; settings: mice, intraperitoneal administration; ref Cuny et al., 2008; cited from earlier work
[8] = C2C12 cells, SMAD2/3 phosphorylation, HTRF, read-out: TGFβ (mediated by ALK5) IC50

T3 sequence (P36895 24-532): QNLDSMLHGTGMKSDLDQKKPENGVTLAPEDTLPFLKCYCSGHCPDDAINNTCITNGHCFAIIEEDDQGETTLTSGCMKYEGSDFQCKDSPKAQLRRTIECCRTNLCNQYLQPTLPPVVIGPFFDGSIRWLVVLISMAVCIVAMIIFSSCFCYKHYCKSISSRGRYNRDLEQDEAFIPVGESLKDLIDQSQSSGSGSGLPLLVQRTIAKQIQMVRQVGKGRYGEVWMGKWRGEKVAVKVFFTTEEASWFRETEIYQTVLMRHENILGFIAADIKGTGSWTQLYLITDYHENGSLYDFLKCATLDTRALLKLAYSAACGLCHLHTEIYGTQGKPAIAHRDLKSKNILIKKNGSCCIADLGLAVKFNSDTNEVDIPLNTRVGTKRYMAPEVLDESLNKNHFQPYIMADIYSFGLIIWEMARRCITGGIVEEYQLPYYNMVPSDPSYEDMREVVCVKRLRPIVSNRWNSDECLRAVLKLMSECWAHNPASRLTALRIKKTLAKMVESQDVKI

## Cc1cc(-c2cnn3cc(-c4ccc(N5CCNCC5)cc4)cnc23)c2ccccc2n1 [Compound 1]
[1]; UDPGA-fortified human liver microsomes
  glucuronide conjugate: No glucuronide conjugate was observed
[1]; human liver cytosol
  metabolism in cytosol incubation (AO-mediated): No metabolism was observed
[1]; human liver microsomes
  extent of metabolism in human liver microsomes: metabolized moderately
[1]; human liver microsomes, GSH
  GSH adduct in trapping experiments: no GSH or cyanide adduct was detected
[1]; human liver microsomes, KCN
  cyanide adduct in trapping experiments: no GSH or cyanide adduct was detected
[1]; human microsomal fractions
  aniline derivatives: No aniline derivatives were observed
[2]
  Papp: 437 ×10⁻⁶ cm/s
ALK5
  IC50: 987 nM
[3]
  solubility at 6 h: 1 µg/mL (≈ 2.38 µM)
[4]
  half-life at 1 μM: > 30 min
ALK2
  IC50: 120 nM

## c1ccc2c(-c3cnn4cc(-c5ccc(OCCN6CCCCC6)nc5)cnc34)ccnc2c1 [Compound 2]
ALK3
  IC50: 3270 nM
[2]
  Papp: 7 ×10⁻⁶ cm/s
ALK5; [8]
  IC50: 27400 nM
[3]
  solubility at 6 h: < 1 µg/mL
[4]
  half-life at 1 μM: 22 min
ALK2
  IC50: 227 nM
[5]
  aniline formation: not detected
  cyanide (KCN) adduct: not detected
  metabolism in cytosol incubation (AO-mediated): An oxidative metabolite was observed
  GSH adduct: observed only in mouse microsomal incubation

## Cc1cc(-c2cnn3cc(-c4ccc(OCCN5CCCCC5)nc4)cnc23)c2ccccc2n1 [Compound 3]
ALK3
  IC50: 4340 nM
[2]
  Papp: 1070 ×10⁻⁶ cm/s
ALK5; [8]
  IC50: 2660 nM
[3]
  solubility at 6 h: 36.2 µg/mL (≈ 77.9 µM)
[4]
  half-life at 1 μM: > 30 min
ALK2
  IC50: 466 nM
ALK2; relative to LDN-193189
  potency against ALK2 mediated signaling compared to LDN-193189: threefold less potent
[5]
  aniline formation: Neither aniline formation nor cytosolic metabolism were observed
  cyanide (KCN) adduct: No cyanide adduct or glucuronide conjugate was observed
  metabolism in cytosol incubation (AO-mediated): No metabolite formation was observed
  GSH adduct: observed only in mouse microsomal incubation
[5]; UDPGA
  glucuronide conjugate: No cyanide adduct or glucuronide conjugate was observed

## Nc1ccc(-c2cnc3c(-c4ccnc5ccccc45)cnn3c2)cc1 [Compound M337]
[6]
  Species in which the metabolite of LDN-193189 was observed: M, Rb, D, Mo, H
  metabolite found in rat microsomal incubation with LDN-193189: not found

## NCCNc1ccc(-c2cnc3c(-c4ccnc5ccccc45)cnn3c2)cc1 [Compound M380]
[6]
  metabolite found in rat microsomal incubation with LDN-193189: not found

## OCCNc1ccc(-c2cnc3c(-c4ccnc5ccccc45)cnn3c2)cc1 [Compound M381]
[6]
  Species in which the metabolite of LDN-193189 was observed: Rb, D, Mo, H

## O=C(O)CNc1ccc(-c2cnc3c(-c4ccnc5ccccc45)cnn3c2)cc1 [Compound M395]
[6]
  Species in which the metabolite of LDN-193189 was observed: Rb, D, Mo, H

## Cc1cc(-c2cnn3cc(-c4ccc(OCCO)nc4)cnc23)c2ccccc2n1 [Compound M397]
[5]
  Species in which the metabolite of Compound 2 was observed: H, M
  Species in which the metabolite of Compound 3 was observed: H, M

## Cc1cc(-c2cnn3cc(-c4ccc(OCC(=O)O)nc4)cnc23)c2ccccc2n1 [Compound M411]
[5]
  Species in which the metabolite of Compound 3 was observed: H, M

## O=C1CN(c2ccc(-c3cnc4c(-c5ccnc6ccccc56)cnn4c3)cc2)CCN1 [Compound M420]
[6]
  Species in which the metabolite of LDN-193189 was observed: M, R, Rb, D, Mo, H

## Oc1cc(-c2cnn3cc(-c4ccc(N5CCNCC5)cc4)cnc23)c2ccccc2n1 [Compound M422c]
[6]
  Species in which the metabolite of LDN-193189 was observed: all species except dog

## N#CC1CNCCN1c1ccc(-c2cnc3c(-c4ccnc5ccccc45)cnn3c2)cc1 (stereo not shown) [Compound M431]
[6]
  Species in which the metabolite of LDN-193189 was observed: M, R, Rb, D, Mo, H

## NCCN(CC(=O)O)c1ccc(-c2cnc3c(-c4ccnc5ccccc45)cnn3c2)cc1 [Compound M438]
[6]
  Species in which the metabolite of LDN-193189 was observed: M, R, Rb, D, Mo, H

## N#CC1CNC(=O)CN1c1ccc(-c2cnc3c(-c4ccnc5ccccc45)cnn3c2)cc1 (stereo not shown) [Compound M445]
[6]
  Species in which the metabolite of LDN-193189 was observed: M, R, Rb, D, Mo, H

## O=c1cc(-c2cnn3cc(-c4ccc(OCCN5CCCCC5)nc4)cnc23)c2ccccc2[nH]1 [Compound M466d]
[5]
  Species in which the metabolite of Compound 2 was observed: H, M

## c1ccc2c(-c3cnn4cc(-c5ccc(N6CCNCC6)cc5)cnc34)ccnc2c1 [LDN-193189, reference compound]
[1]; human liver cytosol, allopurinol 0.1 mM
  formation of M422c on addition of XO inhibitor allopurinol: did not result in a change
[1]; human liver cytosol, menadione 1 mM
  formation of M422c in the presence of AO inhibitor menadione: reduced
Mouse FOP disease model
  efficacy in an animal model of FOP: efficacious
ALK3
  IC50: 585 nM
[2]
  Papp: 320 ×10⁻⁶ cm/s
[3]
  solubility at 6 h: 1.1 µg/mL (≈ 2.71 µM)
[4]
  half-life at 1 μM: > 30 min
[7]
  plasma t1/2: 96 min
[6]; UDPGA 2 mM
  glucuronide conjugates: no glucuronide conjugates observed
[6]; liver microsomes from any species, GSH 2 mM
  GSH trapping of reactive metabolites: no “soft electrophiles” were produced
[6]; liver microsomes, no cytosol added
  rank ordering of the metabolic conversion in liver microsomes: dog > rabbit > mouse > human ∼ monkey > rat
[6]; liver preparations with cytosol
  extent of metabolic conversion to M422c, order of species: monkey > rabbit > human > mouse > rat with no conversion observed in dog liver preparations

## CN1CCC[C@H]1c1cccnc1 [Nicotine, reference compound]
[6]; liver microsomes, KCN 0.1 mM
  cyanide adducts in KCN trapping: produced the expected cyanide derivatives

## C[C@]12CC[C@H]3[C@@H](CCC4=CC(=O)CC[C@@]43C)[C@@H]1CC[C@@H]2O [testosterone, reference compound]
[1]; human liver microsomes, 100 μM, 20 min
  metabolite formation of positive control: showed the expected metabolite formation
